Source: US20220387483A1, “USE OF IODIDE COMPOUNDS FOR THE TREATMENT AND PREVENTION OF CHEMOTHERAPY-ASSOCIATED CACHEXIA AND CARDIOTOXICITY” (FARADAY PHARMACEUTICALS, INC., priority 2019, published 2022)
One block for each molecule: values may come before it.

Key:
[1] = system: Balb/c mice bearing subcutaneous CT26 tumors; assay: muscle histology and morphometry (muscle fiber area) in the CT26 cancer cachexia model; type: in vivo; settings: for muscle fiber area, gastrocnemius / muscle fiber area, soleus: histopathological images vs vehicle control; for muscle fiber area, tibialis anterior: vs vehicle control
Experimental: (§1) The anti-cachectic activity of iodide was evaluated in a cancer cachexia model of Balb/c mice bearing subcutaneous CT26 tumors. NaI was administered as FDY-5301, which is sodium iodide solubilized in water and balanced with sodium chloride to create an isotonic saline solution, with a pH between 7.0 and 9.5. As shown in the experimental design depicted in FIG. 1, when tumor volume reached 100 mm^3, the mice were either left untreated, or treated with one of the following: (i) vehicle control (0.5% CMC); (ii) NaI (FDY-5301) at 2 mg/kg i.v., QD×3 weeks; (iii) bucindolol at 2 mg/kg p.o., QD×3 weeks; or (iv) NaI (FDY-5301) at 40 ug/day slow release via Alzet osmotic pump (flow rate 0.11 uL/h) s.c. for 20 days. On day 14, 1 hour post dosing, blood samples were taken from three animals from groups 2, 3, and 5. On day 20, the animals were humanely euthanized and tumor and animal characteristics were measured. Prior to euthanasia, blood samples were collected for evaluation of biochemical parameters. Following euthanasia, tumor tissue and organs, muscles were collected and weighed.
Morphometric evaluation of transverse sections of muscle fiber area (um2) was performed on tibialis anterior, gastrocnemius, and soleus muscles from the animals described in Example 1, for evaluation of anti-cachectic properties of FDY-5301 and bucindolol in the cancer cachexia model.

[2] = system: Balb/c mice bearing subcutaneous CT26 tumors; assay: cancer cachexia model of Balb/c mice bearing subcutaneous CT26 tumors; type: in vivo; settings: for TNF-α level / creatine kinase level / serum LDL level / serum triglyceride level / % tumor grow inhibition (TGI) / serum VLDL level: vs vehicle control; for % tumor grow inhibition (TGI): day 20; for IL-6 level / kidney weight / lung weight / spleen weight / serum levels of TNF-α: test groups vs vehicle control; for IL-6 level: FIG. 10B; for kidney weight / lung weight / spleen weight / serum levels of TNF-α: significance; for serum levels of TNF-α: FIG. 10A; for body weight: throughout the experimental period
Experimental: as §1

[3] = system: cardiotoxicity induced by doxorubicin; assay: cardiotoxicity induced by doxorubicin chemotherapy, ejection fraction via ultrasound; type: in vivo, C57Bl/6 mice
Experimental: Male C57Bl/6 mice (˜10 weeks old) were given a 15 mg/kg i.p. bolus of doxorubicin to induce cardiotoxicity. Assessment of ejection fraction was performed via ultrasound at baseline (day 0, prior to any doxorubicin administration) and on days 3, 7, 14 or 28 days post administration. Dosing of placebo or FDY-5301 was done in a blinded fashion, as was all ultrasound analysis.
A single 2 mg/kg i.v. bolus of FDY-5301 was administered by the retro orbital (r.o.) route and immediately followed by 15 mg/kg doxorubicin i.p. Placebo treated animals received saline. A Vevo® 2100 imaging system was used to assess cardiac function on days 0 (baseline), 7, 14, & 28.
A single 2 mg/kg i.v. bolus of NaI was administered by the retro orbital (r.o.) route followed immediately by the s.c. implantation of an osmotic pump designed to deliver 2 mg/kg/day of NaI. The mice then received a 15 mg/kg doxorubicin i.p. bolus. Placebo treated animals received saline (and an osmotic pump filled with saline). Cardiac function was assessed on days 0 (baseline), 3, 7 & 14.

[4] = slow release via Alzet osmotic pump

Compound: [I-].[Na+] [FDY-5301, sodium iodide]
muscle fiber area, gastrocnemius ([1]; 40 ug/day Alzet pump): increased muscle fiber area
muscle fiber area, soleus ([1]; 40 ug/day Alzet pump): increased muscle fiber area
muscle fiber area, tibialis anterior ([1]; 40 ug/day slow release via Alzet osmotic pump): significant increase
muscle fiber area, tibialis anterior ([1]; 40 ug/day slow release via Alzet osmotic pump, listed as FDY-3501): increased muscle fiber area
muscle fiber area, gastrocnemius ([1]; 2 mg/kg i.v.): increased muscle fiber area
muscle fiber area, soleus ([1]; 2 mg/kg i.v.): increased muscle fiber area
muscle fiber area, tibialis anterior ([1]; 2 mg/kg i.v.): Non-significant
muscle fiber area, tibialis anterior ([1]; 2 mg/kg i.v., listed as FDY-3501): increased muscle fiber area
TNF-α level ([2]; 2 mg/kg i.v.): non-significantly lower
creatine kinase level ([2]; 2 mg/kg i.v.): marginal decrease
serum LDL level ([2]; 2 mg/kg i.v.): non-significant change
serum triglyceride level ([2]; 2 mg/kg i.v.): marginally lower
% tumor grow inhibition (TGI) ([2]; 40 ug/day slow release via Alzet osmotic pump s.c.): 23%
% tumor grow inhibition (TGI) ([2]; 2 mg/kg i.v., QD×3 weeks): 31%
TNF-α level [2, 4]: marginally higher
serum LDL level [2, 4]: significant increase
serum VLDL level [2, 4]: significant decrease
serum triglyceride level [2, 4]: significantly lower
creatine kinase level ([2]; slow release): marginal decrease
IL-6 level [2]: Non-significant
kidney weight [2]: Non-significant
lung weight [2]: Non-significant
spleen weight [2]: Non-significant
serum levels of TNF-α [2]: Non-Significant
body weight ([2]; 2 mg/kg i.v., QD×3 weeks): progressive body weight gain
body weight [2, 4]: progressive body weight gain
ejection fraction (EF) ([3]; 2 mg/kg i.v. bolus + s.c. osmotic pump 2 mg/kg/day, 15 mg/kg doxorubicin i.p., by day 14, vs placebo): stabilized EF
ejection fraction ([3]; combined results of bolus and bolus + continuous studies, delivered at the time of chemotherapy): prevents a significant reduction in ejection fraction
change in ejection fraction from baseline ([3]; single 2 mg/kg i.v. bolus then 15 mg/kg doxorubicin i.p., days 7, 14, 28, vs placebo): less of a reduction in change in ejection fraction from baseline

creatine kinase level ([2]; 2 mg/kg p.o.): higher level
Compound: CC(C)(Cc1c[nH]c2ccccc12)NCC(O)COc1ccccc1C#N (stereo not shown) [bucindolol, reference compound]
muscle fiber area, gastrocnemius ([1]; 2 mg/kg p.o.): increased muscle fiber area
muscle fiber area, soleus ([1]; 2 mg/kg p.o.): increased muscle fiber area
TNF-α level ([2]; 2 mg/kg p.o.): marginally higher
serum LDL level ([2]; 2 mg/kg p.o.): non-significant change
serum VLDL level ([2]; 2 mg/kg p.o.): significant decrease
serum triglyceride level ([2]; bucindolol 2 mg/kg p.o.): significantly lower
% tumor grow inhibition (TGI) ([2]; 2 mg/kg p.o., QD×3 weeks): 24%
IL-6 level [2]: Non-significant
kidney weight [2]: Non-significant
lung weight [2]: Non-significant
spleen weight [2]: Non-significant
serum levels of TNF-α [2]: Non-Significant
body weight ([2]; 2 mg/kg p.o., QD×3 weeks): progressive body weight gain
